The values that follow come from patent US9029368B2, “3,7-disubstituted octahydro-2H-pyrido[4,3-E][1,3]oxazin-2-one antibiotics” (Actelion Pharmaceuticals Ltd., priority 2011, dated 2015).

Converted amounts (≈) assume the structure as drawn.

In the first experiment the test system is S. aureus 29213. Briefly: Bacterial growth minimal inhibitory concentrations (microdilution in cation-adjusted Mueller-Hinton Broth, CLSI M7-A7). It is filed as cell-based. As to conditions: Staphylococcus aureus, 29213, microdilution method. How it is done:
Bacterial Growth Minimal Inhibitory Concentrations: Minimal inhibitory concentrations (MICs; mg/l) were determined in cation-adjusted Mueller-Hinton Broth by a microdilution method following the description given in “Methods for Dilution Antimicrobial Susceptibility Tests for Bacteria that Grow Aerobically”, Approved standard, 7th ed., Clinical and Laboratory Standards Institute (CLSI) Document M7-A7, Wayne, Pa., USA, 2006. All Example compounds were tested against several Gram positive and Gram negative bacteria.
Background: Broth dilution looks for growth in wells or tubes with falling amounts of substance.
Take `COc1ccc2ccc(=O)n(CCN3CC[C@@H]4CN(c5ccc6c(c5)NC(=O)CS6)C(=O)O[C@H]4C3)c2n1` (racemic) [Example 31, rac-(4aR*,8aR*)-7-(2-(7-methoxy-2-oxo-1,8-naphthyridin-1(2H)-yl)ethyl)-3-(3-oxo-3,4-dihydro-2H-benzo[b][1,4]thiazin-6-yl)octahydro-2H-pyrido[4,3-e][1,3]oxazin-2-one]: the MIC – broadly, the lowest concentration found to suppress growth – was at most 0.031 µg/mL.

`COc1ccc2ncc(F)c(C(O)CN3CC[C@@H]4CN(c5ccc6c(c5)NC(=O)CO6)C(=O)O[C@H]4C3)c2n1` (mixture of isomers) [Example 32, (4aR*,8aR*)-7-((2RS)-2-(3-fluoro-6-methoxy-1,5-naphthyridin-4-yl)-2-hydroxyethyl)-3-(3-oxo-3,4-dihydro-2H-benzo[b][1,4]oxazin-6-yl)octahydro-2H-pyrido[4,3-e][1,3]oxazin-2-one]: the MIC amounted to 0.125 µg/mL (≈ 0.239 µM).

In the case of `COc1ccc2ccc(=O)n(CCN3CC[C@@H]4CN(c5ccc6c(c5)NC(=O)CO6)C(=O)O[C@H]4C3)c2n1` (racemic) [Example 34, rac-(4aR*,8aR*)-7-(2-(7-methoxy-2-oxo-1,8-naphthyridin-1(2H)-yl)ethyl)-3-(3-oxo-3,4-dihydro-2H-benzo[b][1,4]oxazin-6-yl)octahydro-2H-pyrido[4,3-e][1,3]oxazin-2-one], the MIC came out at 0.25 µg/mL (≈ 0.495 µM).

On to `O=C1O[C@H]2CN(C[C@H]3Cc4c(F)ccc5ccc(=O)n3c45)CC[C@@H]2CN1c1ccc2c(c1)OCCO2` (relative stereo) [Example 29, (R)-2-[(4aR*,8aR*)-3-(2,3-dihydro-benzo[1,4]dioxin-6-yl)-2-oxo-octahydro-pyrido[4,3-e][1,3]oxazin-7-ylmethyl]-9-fluoro-1,2-dihydro-pyrrolo[3,2,1-ij]quinolin-4-one], for which the MIC was found to be 0.25 µg/mL (≈ 0.509 µM).

The molecule `COc1ccc2ncc(F)c(CCN3CC[C@@H]4CN(c5ccc6c(c5)OCCO6)C(=O)O[C@H]4C3)c2n1` (single isomer, unassigned) [Example 1] yielded a minimum inhibitory concentration (MIC) of at most 0.031 µg/mL.

`COc1ccc2ncc(F)c(CCN3CC[C@H]4CN(c5ccc6c(c5)OCCO6)C(=O)O[C@@H]4C3)c2n1` (single isomer, unassigned) [Example 2] showed an MIC of at most 0.031 µg/mL.

The molecule `COc1ccc2ncc(F)c([C@H](O)CN3CC[C@H]4CN(c5ccc6c(c5)OCCO6)C(=O)O[C@@H]4C3)c2n1` (single isomer, unassigned) [Example 14] returned a minimal inhibitory concentration (MIC) of at most 0.031 µg/mL.

For `COc1ccc2ncc(F)c([C@H](O)CN3CC[C@@H]4CN(c5ccc6c(c5)OCCO6)C(=O)O[C@H]4C3)c2n1` (single isomer, unassigned) [Example 15], the MIC was found to be 0.063 µg/mL (≈ 0.123 µM).

As for `COc1ccc2ncc(F)c(CCN3CC[C@@H]4CN(c5ccc6c(n5)NC(=O)CS6)C(=O)O[C@H]4C3)c2n1` (single isomer, unassigned) [Example 20], the MIC is at most 0.031 µg/mL.

Take `COc1ccc2ncc(F)c(CCN3CC[C@H]4CN(c5ccc6c(n5)NC(=O)CS6)C(=O)O[C@@H]4C3)c2n1` (single isomer, unassigned) [Example 21]: the MIC is at most 0.031 µg/mL.

Still in this experiment, the particulars now being: microdilution method.
For the molecule `O=C1COc2ccc(N3C[C@H]4CCN(C[C@H]5Cc6c(F)ccc7ccc(=O)n5c67)C[C@@H]4OC3=O)nc2N1` (relative stereo) [Example 33, (4aR*,8aR*)-7-0(R)-9-fluoro-4-oxo-2,4-dihydro-1H-pyrrolo[3,2,1-ij]quinolin-2-yl)methyl)-3-(3-oxo-3,4-dihydro-2H-pyrido[3,2-b][1,4]oxazin-6-yl)octahydro-2H-pyrido[4,3-e][1,3]oxazin-2-one], the “MIC for S. aureus 29213” value worked out at 0.125 µg/mL.
